Measured values taken from patent publication US20080009534A1, “S[…] DERIVATIVES USEFUL AS AN[…] A[…] AND METHOD” (Bristol-Myers Squibb Company, priority 2006, published 2008).

Key:
[1] = target: T1, human PPARγ receptor (Homo sapiens, UniProt P37231); assay: In vitro PPAR agonist functional assay, GAL4-hPPARγ-LBD transactivation in HEK293 cells (luciferase); format: cell-based; conditions: for EC50: GAL4-hPPARγ-LBD in HEK293 cells, half-maximal fold induction; for Emax at 1 µM: HEK293, activity at 1 μM relative to BRL-49653/rosiglitazone at 1 μM, read-out: PPARγ % efficacy (intrinsic activity)
T1 construct: transiently transfecting GAL4-hPPARα-LBD or GAL4-hPPARγ-LBD constructs; expressed in transfected cells; host or cells: HEK293 cells stably expressing 5×GAL4RE-Luciferase
T1 sequence (P37231 238-503 limits assumed): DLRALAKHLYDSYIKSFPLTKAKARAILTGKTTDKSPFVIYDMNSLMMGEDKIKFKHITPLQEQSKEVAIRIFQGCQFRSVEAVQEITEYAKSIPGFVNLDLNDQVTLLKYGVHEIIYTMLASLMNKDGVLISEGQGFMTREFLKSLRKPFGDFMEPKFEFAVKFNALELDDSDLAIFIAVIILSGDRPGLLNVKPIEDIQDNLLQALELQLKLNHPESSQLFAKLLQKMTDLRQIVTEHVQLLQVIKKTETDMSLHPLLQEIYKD
Description: (§1) In vitro PPAR agonist functional assays were performed by transiently transfecting GAL4-hPPARα-LBD or GAL4-hPPARγ-LBD constructs respectively into HEK293 (human embryonic kidney) cells stably expressing 5×GAL4RE-Luciferase. Data were normalized for efficacy at 1 μM to known agonists (BRL-49653 for hPPARγ and GW-233 1 for hPPARα). Agonist binding results in an increase in luciferase enzyme activity which can be monitored by measuring luminescence upon cell lysing and the addition of luciferin substrate. EC50 values (μM) for PPARα or γ agonist activity were calculated as the concentration of the test ligand (μM) required for the half-maximal fold induction of HEK293 cells. The “intrinsic activity” of a test ligand is defined as its activity at 1 μM (expressed as a percentage) relative to the activity of the primary standards (GW2331 for PPARα and BRL-49653/rosiglitazone for PPARγ respectively, both tested at 1 μM). […] The ratios of the PPARα:PPARγ EC50 values of compounds of formula I are between 1:2 and 2:1 in this functional assay.

[2] = target: T2, human PPARα receptor (Homo sapiens, UniProt Q07869); assay: In vitro PPAR agonist functional assay, GAL4-hPPARα-LBD transactivation in HEK293 cells (luciferase); format: cell-based; conditions: for EC50: GAL4-hPPARα-LBD in HEK293 cells, half-maximal fold induction; for Emax at 1 µM: HEK293, activity at 1 μM relative to GW2331 at 1 μM, read-out: PPARα % efficacy (intrinsic activity)
T2 construct: transiently transfecting GAL4-hPPARα-LBD or GAL4-hPPARγ-LBD constructs; expressed in transfected cells; host or cells: HEK293 cells stably expressing 5×GAL4RE-Luciferase
T2 sequence (Q07869 239-466 limits assumed): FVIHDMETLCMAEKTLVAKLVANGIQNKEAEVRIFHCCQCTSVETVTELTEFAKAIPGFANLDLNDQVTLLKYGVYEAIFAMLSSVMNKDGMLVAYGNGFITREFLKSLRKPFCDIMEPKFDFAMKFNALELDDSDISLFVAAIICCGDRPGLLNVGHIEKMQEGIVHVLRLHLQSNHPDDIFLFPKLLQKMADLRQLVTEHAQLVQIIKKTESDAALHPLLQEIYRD
Description: as §1

[3] = system: db/db mice; assay: db/db mouse model, plasma glucose and triglycerides after 14 days of oral dosing; format: in vivo; conditions: female db/db mice, 10 mg/kg orally once daily for 14 days, fasted plasma on day 15
Description: 8 week old female db/db mice were dosed orally once daily for 14 days at 10 mg/kg with the Example 1a-1c compounds using a vehicle comprised of 5% 1-methyl-pyrrolidinone, 20% polyethylene glycol (PEG400) and 75% 20 mM dibasic sodium phosphate. Plasma samples were obtained from mice fasted overnight (18 hours after last administration of compound) on day 15. The plasma glucose and triglycerides levels were determined and the percentage reductions in both parameters of drug-treated animal relative to vehicle-treated animals are shown in the table below.
It is known by one skilled in the art that the compounds of the present invention normalize plasma glucose levels and decrease plasma triglycerides at doses ≧10 mg/kg in rodent models of type 2 diabetes (e.g. the db/db mouse). The typical administration of said compounds is expected to be between 0.1 to 2,000 mg/day in the clinical setting, and is preferably between 0.5 to 100 mg/day. (Reference for db/db mouse as an in vivo rodent model for antidiabetic efficacy: T. Harrity et al, Diabetes, 2006, 55, 240-248).

Work on `Cc1ccc(OC(=O)N(CC(=O)O)[C@@H](C)c2ccc(OCc3nc(-c4ccccc4)oc3C)cc2)cc1F` [Compound 1a] yielded an EC50 [1] of 3 ± 1 nM, an Emax at 1 µM [1] of 128% and a melting point of 152.6 °C. The EC50 [2] was 6 ± 1 nM, the Emax at 1 µM [2] was 92% and the “% Reduction in Plasma Glucose vs Vehicle-control group” value (shortened to “% Reduction in Plasma Glucose”) [3] was −45%. For the same molecule, the “% Reduction in Plasma Triglycerides vs Vehicle-control group” value (“% Reduction in Plasma Triglycerides” for short) [3] was −45%.
Molecule `COc1cccc(OC(=O)N(CC(=O)O)[C@@H](C)c2ccc(OCc3nc(-c4ccc(C)cc4)oc3C)cc2)c1` [Compound 1c] has an EC50 [1] of 5 ± 2 nM, an Emax at 1 µM [1] of 124% and an EC50 [2] of 6 ± 2 nM. For the same molecule, the Emax at 1 µM [2] was 82%, the “% Reduction in Plasma Glucose” value [3] was −34% and the “% Reduction in Plasma Triglycerides” value [3] was −61%.
With `Cc1cc(OC(=O)N(CC(=O)O)[C@@H](C)c2ccc(OCc3nc(-c4ccccc4)oc3C)cc2)ccc1F` [Compound 1b] the EC50 [1] was 4 ± 2 nM, the Emax at 1 µM [1] was 126% and the EC50 [2] was 8 ± 2 nM. The Emax at 1 µM [2] was 95%, the “% Reduction in Plasma Glucose” value [3] was −34% and the “% Reduction in Plasma Triglycerides” value [3] was −50%.
